Columns and labels:
[1] = test system: immature dexamethasone treated male rats; assay: in vivo antiglucocorticoid activity in immature dexamethasone treated male rats (procedure of Kloosterboer et al); parameters: species or system rat; details: for threshold dose for demonstrating in vivo antiglucocorticoid effects: rat
[2] = test system: patients with psychotic major depression; details: 8-12 mg/kg/day over 4 days (WO 99/17779); cited from earlier work
glucocorticoid receptor = biological target: T1, glucocorticoid receptor (Homo sapiens, UniProt P04150); assay: in vitro binding to the glucocorticoid receptor
T1 sequence (P04150 1-777): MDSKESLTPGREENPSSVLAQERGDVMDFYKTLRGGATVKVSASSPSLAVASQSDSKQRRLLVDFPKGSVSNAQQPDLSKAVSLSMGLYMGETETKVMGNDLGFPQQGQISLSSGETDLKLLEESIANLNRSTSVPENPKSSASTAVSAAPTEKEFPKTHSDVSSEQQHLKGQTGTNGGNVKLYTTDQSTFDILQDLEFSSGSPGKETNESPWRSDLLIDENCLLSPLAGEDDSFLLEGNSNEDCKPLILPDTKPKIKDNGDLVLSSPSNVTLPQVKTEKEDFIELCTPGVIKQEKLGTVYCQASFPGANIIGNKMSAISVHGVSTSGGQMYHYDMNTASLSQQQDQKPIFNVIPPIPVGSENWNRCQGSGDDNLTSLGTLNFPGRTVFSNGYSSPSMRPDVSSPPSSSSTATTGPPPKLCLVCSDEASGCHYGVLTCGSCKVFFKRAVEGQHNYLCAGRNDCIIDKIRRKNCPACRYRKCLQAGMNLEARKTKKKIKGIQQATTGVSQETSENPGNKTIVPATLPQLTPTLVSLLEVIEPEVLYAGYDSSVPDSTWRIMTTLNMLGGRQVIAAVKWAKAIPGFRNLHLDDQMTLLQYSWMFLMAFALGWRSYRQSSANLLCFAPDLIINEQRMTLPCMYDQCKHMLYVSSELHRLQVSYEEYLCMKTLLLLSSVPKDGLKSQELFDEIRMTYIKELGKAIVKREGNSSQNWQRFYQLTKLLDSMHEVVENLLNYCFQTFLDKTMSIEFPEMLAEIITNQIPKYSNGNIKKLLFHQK

(healthy) humans = assay: clinical study of antiglucocorticoid activity in healthy humans (cortisol increase, dexamethason antagonism); assay type: in vivo, human
[3] = test system: depressed patients (Major Depressive Disorder); assay: double blind, 4 week, paroxetine controlled study in patients with Major Depressive Disorder (HAMD-21); assay type: in vivo, human; details: for difference on the Hamilton scale versus paroxetine (onset of antidepressant effect): 150 mg treatment group
Method: A double blind, 4 week, paroxetine controlled study of Org 34517 in depressed patients was carried out. Paroxetine is a selective serotonin re-uptake inhibitor which is recognized as an effective antidepressant for major depression.
Patients were randomly allocated to one of three treatment groups. Group I patients (Org 150 group: 50 patients) received 2 capsules with 75 mg of Org 34517 and one placebo (total daily dose 150 mg) for the first 2 weeks and 2 capsules with 75 mg Org 34517 and 1 capsule with 150 mg (total daily dose 300 mg) the next 2 weeks; Group II patients (Org 450 group: 46 patients) received 3 capsules with 150 mg Org 34517 (total daily dose 450 mg) in the first 2 weeks and 4 capsules of Org 34517 (total daily dose 600 mg) in the next 2 weeks; Group III patients (paroxetine group: 44 patients) received 2 capsules with 10 mg paroxetine and one placebo capsule (total daily dose 20 mg) for the first 2 weeks, followed by 2 capsules of 10 mg and one capsule of 20 mg paroxetine (total daily dose 40 mg) in the next 2 weeks. Medication was administered orally in the morning. Efficacy assessment was done on days 4, 7, 10, 14, 21, 28 and 35 by using the 21-item HAMD scale.
Afternoon cortisol plasma levels (ACT=afternoon cortisol test) were measured as described by Halbreich et al (J. Clin. Endocrinol. Metab. 54(6), 1262, 1982).

| potency in in vitro binding to the glucocorticoid receptor, relative to mifepristone (glucocorticoid receptor) [%] | SMILES | threshold dose for demonstrating in vivo antiglucocorticoid effects [1] [mg/kg] | treatment of psychosis associated with psychotic major depression [2] | antiglucocorticoid activity: effect (weight gain) on body weight, adrenals, thymus and spleen ([1]; orally applied, 10 mg/kg to 40 mg/kg, immature dexamethasone treated male rats) | antiglucocorticoid potency relative to mifepristone, estimated on the amount of dexamethason antagonism ((healthy) humans) [%] | antiglucocorticoid potency relative to mifepristone, estimated on the basis of the cortisol increase ((healthy) humans) | difference on the Hamilton scale versus paroxetine (onset of antidepressant effect) ([3]; all patients, day 10, FIG. 1) [point] | onset of antidepressant effect ([3]; daily dosage not exceeding 300 mg compared with 450 mg or more) | difference on the Hamilton scale versus paroxetine (onset of antidepressant effect) ([3]; dexamethason non-suppressors, day 10, FIG. 3) [point] | difference on the Hamilton scale versus paroxetine (onset of antidepressant effect) ([3]; patients with afternoon plasma cortisol higher than 10 μg/dl at start, day 10, FIG. 2) [point] |
| --- | --- | --- | --- | --- | --- | --- | --- | --- | --- | --- |
| – | CC#C[C@]1(O)CC[C@H]2[C@@H]3CCC4=CC(=O)CCC4=C3[C@@H](c3ccc(N(C)C)cc3)C[C@@]21C [mifepristone, 17β-hydroxy-11β-(4-dimethylaminophenyl)-17α-(1-propynyl)estra-4,9-dien-3-one, reference compound] | 5 | effective | – | – | – | – | – | – | – |
| 52 | CC#C[C@]1(O)CC[C@H]2[C@@H]3CCC4=CC(=O)CCC4=C3[C@@H](c3ccc4c(c3)OCO4)C[C@@]21C [Org 34517, (11β,17β)-11-(1,3-benzodioxol-5-yl)-17-hydroxy-17-(1-propynyl)estra-4,9-dien-3-one] | 20 | – | proved to increase with the dose | 17 | 10-25% | ~2 | fast onset of antidepressant effect | ~6 | ~4 |
